Test results reported in patent US8052987B2, “Method of administering bisphosphonates” (Novartis Pharmaceuticals Corporation, priority 2000, dated 2011).

How the values were obtained:
[1] = test system: patients with postmenopausal osteoporosis; experiment: 12 month dose-ranging trial of iv zoledronic acid: percent change from baseline in bone mineral density (DEXA) versus placebo; assay type: in vivo, human; conditions: for Difference versus placebo for percent change from baseline in bone mineral density of the lumbar spine; postero anterior (L1-L4): at 12 months, ITT population
Excerpt: “A Multinational, Randomized, Double-Blind, Placebo-Controlled, Parallel-Group, Dose-Ranging, Safety and Efficacy Trial With Intravenous Bolus Injections of Zoledronate In the Treatment of Postmenopausal Osteoporosis”
(§1) This was a dose and dose regimen-finding 12 month trial of iv zoledronic acid in patients with postmenopausal osteoporosis. Three hundred and fifty one patients were randomized to six study arms. Patients who had recent exposure to bone active drugs, e.g. bisphosphonates, estrogen, calcitonin, raloxifene, or a history of metabolic bone diseases were excluded. All patients were evaluated at baseline and in 3-monthly visits. Zoledronic acid or placebo was administered as a bolus iv injection into a peripheral vein over 5 minutes at every visit.
Efficacy was ascertained by measurement of percent change from baseline in bone mineral density (BMD) measured by dual energy X-ray absorptiometry (DEXA) as compared to placebo, at 6, 9, and 12 months.
(§2) • Placebo • 0.25 mg zoledronic acid every 3 months • 0.5 mg zoledronic acid every 3 months • 1.0 mg zoledronic acid every 3 months • 2.0 mg zoledronic acid every 6 months • 4.0 mg zoledronic acid every 12 months

[2] = test system: patients with postmenopausal osteoporosis; experiment: Suppression of biochemical markers of bone turnover in the same trial; assay type: in vivo, human; conditions: throughout the 6 and 12 month dosing intervals
Method: as §1
Additionally, the degree and duration of suppression of biochemical markers of bone turnover—parathyroid hormone (PTH), bone specific alkaline phosphatase (BSAP), serum C-telopeptide (CTX), serum osteocalcin, urine N-telopeptide (NTX)/creatinine ratio, urine deoxypyridinoline (d-pyd)/creatinine ratio, urine pyridinoline (pyd)/creatinine ratio—was obtained every 3 months and measured in a central laboratory.
as §2

O=P(O)(O)C(O)(Cn1ccnc1)P(=O)(O)O [zoledronate, 2-(imidazol-1yl)-1-hydroxyethane-1,1-diphosphonic acid]
Difference versus placebo for percent change from baseline in bone mineral density of the lumbar spine; postero anterior (L1-L4) ([1]; 1 × 4.0 mg (4.0 mg iv every 12 months)): 4.6%
Difference versus placebo for percent change from baseline in bone mineral density of the lumbar spine; postero anterior (L1-L4) ([1]; 2 × 2.0 mg (2.0 mg iv every 6 months)): 4.2%
Difference versus placebo for percent change from baseline in bone mineral density of the lumbar spine; postero anterior (L1-L4) ([1]; 4 × 0.25 mg (0.25 mg iv every 3 months)): 5.1%
Difference versus placebo for percent change from baseline in bone mineral density of the lumbar spine; postero anterior (L1-L4) ([1]; 4 × 0.5 mg (0.5 mg iv every 3 months)): 4.9%
Difference versus placebo for percent change from baseline in bone mineral density of the lumbar spine; postero anterior (L1-L4) ([1]; 4 × 1.0 mg (1.0 mg iv every 3 months)): 4.5%
percent change from baseline in BMD compared with placebo ([1]; all treatment arms, 12 month results): significantly (p<0.001) greater than placebo
Bone mineral density compared to placebo ([1]; at the spine, hip, distal radius, and total body): increased compared to placebo
bone mass increase (BMD data) ([1]; dose administration as infrequent as every 6 or 12 months): statistically significant and medically relevant bone mass increase
Suppression of biochemical markers of bone formation and bone resorption [2]: suppression of bone turnover to the pre-menopausal level
